# Experimental data: ChEMBL document CHEMBL1201862, “PubChem BioAssay data set” (2004)
# Active and inactive are the calls of the source.
# Legend:
# [1] = molecular target: Voltage-gated inwardly rectifying potassium channel KCNH2 (Homo sapiens, UniProt Q12809); test: concentration-dependent hERG rescue from blockers – cell-based, thallium flux, dose response (AID 2121); format: ADME
# [2] = molecular target: T1, Sphingosine 1-phosphate receptor 2 (Homo sapiens, UniProt O95136); test: Dose Response Cell Based Assay for Agonists of the S1P2 Receptor. [Related pubchem assays: 729, 736, 843 ]; format: functional
# T1 sequence (O95136 whole entry): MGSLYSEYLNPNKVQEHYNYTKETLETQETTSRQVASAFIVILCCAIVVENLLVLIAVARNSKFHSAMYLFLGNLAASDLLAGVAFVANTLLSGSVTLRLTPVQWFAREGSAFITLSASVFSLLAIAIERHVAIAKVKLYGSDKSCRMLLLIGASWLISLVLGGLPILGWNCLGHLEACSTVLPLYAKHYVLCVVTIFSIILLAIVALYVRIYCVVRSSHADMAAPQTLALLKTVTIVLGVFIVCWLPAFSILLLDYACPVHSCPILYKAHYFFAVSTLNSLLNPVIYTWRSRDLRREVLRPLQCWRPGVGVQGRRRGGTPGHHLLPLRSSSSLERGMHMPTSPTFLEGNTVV
# [3] = molecular target: T1, Sphingosine 1-phosphate receptor 2; test: Dose Response Cell Based Assay for Agonists of the S1P2 Receptor of Purchased Analogues. [Related pubchem assays: 729, 843, 854, 736 ]; format: functional
# Caspase-6 = molecular target: T2, Caspase-6 (Homo sapiens, UniProt P55212); test: inhibition of CASP6 peptide cleavage – biochemical, VEID-R110 fluorescence, cherry-pick, dose response (AID 720632)
# T2 sequence (P55212 whole entry): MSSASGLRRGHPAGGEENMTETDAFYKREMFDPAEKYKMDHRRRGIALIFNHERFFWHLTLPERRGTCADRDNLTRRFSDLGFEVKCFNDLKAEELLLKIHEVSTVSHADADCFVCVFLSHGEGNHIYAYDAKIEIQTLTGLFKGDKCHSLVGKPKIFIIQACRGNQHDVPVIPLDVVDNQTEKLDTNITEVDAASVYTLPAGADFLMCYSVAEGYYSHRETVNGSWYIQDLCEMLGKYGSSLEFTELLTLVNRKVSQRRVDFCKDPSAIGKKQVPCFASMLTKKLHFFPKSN
# [4] = molecular target: Serine/threonine-protein phosphatase (Homo sapiens, UniProt Q9BPW0); test: inhibition of protein phosphatase 5 activity – biochemical, fluorescence, dose response (AID 2395)
# Serine/threonine-protein phosphatase, sequence (Q9BPW0 whole entry): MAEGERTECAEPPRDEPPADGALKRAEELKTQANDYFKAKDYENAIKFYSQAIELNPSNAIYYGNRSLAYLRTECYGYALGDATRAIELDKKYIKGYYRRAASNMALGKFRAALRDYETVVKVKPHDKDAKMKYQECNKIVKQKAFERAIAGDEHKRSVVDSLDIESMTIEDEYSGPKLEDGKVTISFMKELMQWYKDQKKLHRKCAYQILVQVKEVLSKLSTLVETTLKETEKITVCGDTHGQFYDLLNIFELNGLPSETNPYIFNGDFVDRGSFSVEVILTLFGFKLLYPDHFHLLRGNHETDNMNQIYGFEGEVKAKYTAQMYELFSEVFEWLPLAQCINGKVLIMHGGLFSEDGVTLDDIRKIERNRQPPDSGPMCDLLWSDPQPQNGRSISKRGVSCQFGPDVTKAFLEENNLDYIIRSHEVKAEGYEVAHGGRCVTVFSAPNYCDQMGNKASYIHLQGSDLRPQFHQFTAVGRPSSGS
# Protein RecA = molecular target: T3, Protein RecA (Mycobacterium tuberculosis, UniProt P9WHJ3); test: Fluorescence Cell-Free Homogeneous Dose Retest to Identify Inhibitors of RecA-Intein Splicing Activity. [Related pubchem assays (depositor defined):AID2097, AID2223, AID489010, AID492950]; format: functional
# T3 sequence (P9WHJ3 whole entry): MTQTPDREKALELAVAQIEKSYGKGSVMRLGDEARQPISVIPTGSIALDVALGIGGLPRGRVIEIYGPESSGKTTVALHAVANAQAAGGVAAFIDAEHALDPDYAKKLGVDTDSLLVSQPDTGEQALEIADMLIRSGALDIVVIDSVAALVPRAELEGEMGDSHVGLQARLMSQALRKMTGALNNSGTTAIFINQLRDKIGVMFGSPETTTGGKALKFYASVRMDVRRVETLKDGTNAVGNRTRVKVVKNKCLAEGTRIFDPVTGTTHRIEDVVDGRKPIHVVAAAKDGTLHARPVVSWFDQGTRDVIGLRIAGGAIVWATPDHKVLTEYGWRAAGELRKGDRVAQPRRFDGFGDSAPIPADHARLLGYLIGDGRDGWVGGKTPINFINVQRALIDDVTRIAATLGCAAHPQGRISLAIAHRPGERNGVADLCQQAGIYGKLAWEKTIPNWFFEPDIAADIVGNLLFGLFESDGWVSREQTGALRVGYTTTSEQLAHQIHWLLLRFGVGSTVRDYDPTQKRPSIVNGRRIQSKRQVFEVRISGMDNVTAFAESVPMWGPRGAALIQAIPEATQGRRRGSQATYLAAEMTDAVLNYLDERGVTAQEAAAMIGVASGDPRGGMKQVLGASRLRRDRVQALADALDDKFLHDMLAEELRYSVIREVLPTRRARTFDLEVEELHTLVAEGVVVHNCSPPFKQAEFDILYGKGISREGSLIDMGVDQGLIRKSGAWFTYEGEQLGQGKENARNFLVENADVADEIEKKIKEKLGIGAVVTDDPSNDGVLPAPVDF
# [5] = molecular target: Serine/threonine-protein phosphatase PP1-alpha catalytic subunit (Homo sapiens, UniProt P62136); test: inhibition of protein phosphatase 1 activity – biochemical, fluorescence, dose response (AID 2394)
# Serine/threonine-protein phosphatase PP1-alpha catalytic subunit, sequence (P62136 whole entry): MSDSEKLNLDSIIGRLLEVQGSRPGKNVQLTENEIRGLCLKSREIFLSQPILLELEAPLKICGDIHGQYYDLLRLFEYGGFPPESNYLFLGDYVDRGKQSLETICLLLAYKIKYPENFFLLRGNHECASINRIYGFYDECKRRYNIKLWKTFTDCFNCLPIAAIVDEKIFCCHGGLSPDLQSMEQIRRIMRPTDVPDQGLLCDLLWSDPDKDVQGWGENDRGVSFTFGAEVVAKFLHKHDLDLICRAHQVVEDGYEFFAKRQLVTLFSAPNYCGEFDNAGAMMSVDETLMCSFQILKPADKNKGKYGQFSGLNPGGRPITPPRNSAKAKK
# [6] = molecular target: T4, Replicative DNA helicase DnaB (Mycobacterium tuberculosis, UniProt P9WMR3); test: DnaB intein splicing inhibitors, dose response, biochemical, cell-free fluorescence (AID 449749); format: functional
# T4 sequence (P9WMR3 whole entry): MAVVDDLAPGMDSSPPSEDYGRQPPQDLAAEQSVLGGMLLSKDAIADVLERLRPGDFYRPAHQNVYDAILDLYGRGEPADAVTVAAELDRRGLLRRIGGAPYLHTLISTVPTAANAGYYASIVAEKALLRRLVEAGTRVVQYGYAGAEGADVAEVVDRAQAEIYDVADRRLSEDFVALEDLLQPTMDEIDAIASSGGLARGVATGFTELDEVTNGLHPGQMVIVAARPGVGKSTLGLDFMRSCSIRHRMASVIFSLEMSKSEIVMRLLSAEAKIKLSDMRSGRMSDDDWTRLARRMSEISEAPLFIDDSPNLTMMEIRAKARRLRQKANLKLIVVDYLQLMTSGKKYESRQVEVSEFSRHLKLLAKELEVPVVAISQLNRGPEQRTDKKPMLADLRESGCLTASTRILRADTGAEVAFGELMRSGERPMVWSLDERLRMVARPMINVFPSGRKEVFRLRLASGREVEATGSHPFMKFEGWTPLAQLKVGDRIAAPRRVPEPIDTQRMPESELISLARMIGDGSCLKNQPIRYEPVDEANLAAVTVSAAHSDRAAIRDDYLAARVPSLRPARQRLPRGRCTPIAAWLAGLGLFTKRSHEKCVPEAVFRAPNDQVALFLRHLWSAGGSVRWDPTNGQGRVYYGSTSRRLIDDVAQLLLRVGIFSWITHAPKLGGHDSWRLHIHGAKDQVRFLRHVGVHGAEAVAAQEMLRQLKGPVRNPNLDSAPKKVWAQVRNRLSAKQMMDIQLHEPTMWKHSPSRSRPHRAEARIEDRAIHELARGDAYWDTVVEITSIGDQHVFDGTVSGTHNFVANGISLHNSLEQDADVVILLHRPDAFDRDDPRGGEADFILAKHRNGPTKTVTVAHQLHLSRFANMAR
# [7] = molecular target: T5, Tyrosyl-DNA phosphodiesterase 2 (Homo sapiens, UniProt O95551); test: potency against TDP2 phosphodiesterase activity – biochemical, epi absorbance, IC50, dose response (AID 743297)
# T5 sequence (O95551 whole entry): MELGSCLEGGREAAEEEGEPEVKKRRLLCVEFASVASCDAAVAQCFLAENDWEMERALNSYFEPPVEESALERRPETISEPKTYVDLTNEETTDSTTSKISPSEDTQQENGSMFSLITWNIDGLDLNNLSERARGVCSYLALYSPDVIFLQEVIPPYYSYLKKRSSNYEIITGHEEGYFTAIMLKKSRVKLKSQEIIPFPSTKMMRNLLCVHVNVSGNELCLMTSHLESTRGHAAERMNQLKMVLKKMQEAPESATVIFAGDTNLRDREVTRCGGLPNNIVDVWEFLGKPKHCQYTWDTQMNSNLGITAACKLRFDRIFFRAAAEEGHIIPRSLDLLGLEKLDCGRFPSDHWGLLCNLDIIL
# [8] = A High Throughput Confirmatory Assay used to Identify Novel Compounds that Inhibit Mycobacterium Tuberculosis in the absence of Glycerol.; format: functional
# [9] = M. tuberculosis growth inhibition, HTS (AID 449762); format: functional
# Aspartyl aminopeptidase = Aspartyl aminopeptidase (Plasmodium falciparum 3D7, UniProt Q8I2J3); test: Counterscreen for inhibitors of M1 and M17 aminopeptidases: QFRET-based biochemical high throughput dose response assay for inhibitors of the Plasmodium falciparum M18 Aspartyl Aminopeptidase (PFM18AAP). [Related PubChem assays: 1619 (Screening assay (M17LAP inhibitors).), 1445 (Screening assay (M1AAP inhibitors).)]
# Aspartyl aminopeptidase, sequence (Q8I2J3 whole entry): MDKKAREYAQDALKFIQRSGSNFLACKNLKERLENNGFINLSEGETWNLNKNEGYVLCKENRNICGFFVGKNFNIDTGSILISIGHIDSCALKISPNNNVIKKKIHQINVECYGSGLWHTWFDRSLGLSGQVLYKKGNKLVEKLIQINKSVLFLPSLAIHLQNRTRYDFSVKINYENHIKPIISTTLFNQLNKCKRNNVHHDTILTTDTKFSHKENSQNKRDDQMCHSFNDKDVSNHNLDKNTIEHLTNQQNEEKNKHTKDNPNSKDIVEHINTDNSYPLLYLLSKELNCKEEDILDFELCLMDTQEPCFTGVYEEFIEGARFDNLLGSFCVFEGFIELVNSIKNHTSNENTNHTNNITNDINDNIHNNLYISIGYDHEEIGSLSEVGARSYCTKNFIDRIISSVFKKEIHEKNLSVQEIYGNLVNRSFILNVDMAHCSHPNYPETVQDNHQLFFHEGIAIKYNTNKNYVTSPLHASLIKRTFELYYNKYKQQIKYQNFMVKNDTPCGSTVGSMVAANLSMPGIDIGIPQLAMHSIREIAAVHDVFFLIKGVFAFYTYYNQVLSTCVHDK
# Leucine aminopeptidase = molecular target: T6, Leucine aminopeptidase (Plasmodium falciparum 3D7, UniProt Q8IL11); test: P. falciparum M17LAP inhibitors, primary screen, biochemical, fluorogenic H-Leu-NHMec substrate, 1536-well (AID 1619); format: functional
# T6 sequence (Q8IL11 whole entry): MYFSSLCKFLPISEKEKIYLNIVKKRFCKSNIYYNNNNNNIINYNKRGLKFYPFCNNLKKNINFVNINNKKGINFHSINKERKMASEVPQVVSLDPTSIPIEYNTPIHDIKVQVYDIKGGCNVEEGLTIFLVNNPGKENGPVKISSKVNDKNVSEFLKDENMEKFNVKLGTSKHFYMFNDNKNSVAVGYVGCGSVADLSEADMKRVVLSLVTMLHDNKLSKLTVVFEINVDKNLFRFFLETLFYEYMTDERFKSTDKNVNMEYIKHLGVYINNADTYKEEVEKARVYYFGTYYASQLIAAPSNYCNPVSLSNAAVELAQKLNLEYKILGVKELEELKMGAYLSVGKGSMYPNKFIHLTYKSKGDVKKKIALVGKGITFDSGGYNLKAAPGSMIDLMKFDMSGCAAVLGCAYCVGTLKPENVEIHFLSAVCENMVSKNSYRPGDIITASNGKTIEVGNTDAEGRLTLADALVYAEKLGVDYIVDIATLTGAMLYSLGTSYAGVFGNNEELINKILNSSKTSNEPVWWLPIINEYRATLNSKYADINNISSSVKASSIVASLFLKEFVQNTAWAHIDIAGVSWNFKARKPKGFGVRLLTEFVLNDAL
# Procathepsin L = Procathepsin L (Homo sapiens, UniProt P07711); test: CTSL1 protease inhibition – biochemical, QFRET, 1536-well, counter-screen for M1/M17 aminopeptidase inhibitor project, dose response (AID 2214)
# Procathepsin L, sequence (P07711 whole entry): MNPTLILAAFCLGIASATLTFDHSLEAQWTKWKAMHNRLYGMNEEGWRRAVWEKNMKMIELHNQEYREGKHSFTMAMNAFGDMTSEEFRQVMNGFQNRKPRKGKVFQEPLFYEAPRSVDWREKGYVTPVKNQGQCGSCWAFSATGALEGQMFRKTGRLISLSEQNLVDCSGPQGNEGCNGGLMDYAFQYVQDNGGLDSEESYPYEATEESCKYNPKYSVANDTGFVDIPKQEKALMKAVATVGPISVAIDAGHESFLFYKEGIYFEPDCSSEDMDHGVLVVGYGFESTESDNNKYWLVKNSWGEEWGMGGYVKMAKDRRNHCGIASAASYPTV
# [10] = molecular target: Complement C1s subcomponent (Homo sapiens, UniProt P09871); test: Complement C1s ELISA. [Related pubchem assays: 538, 787 ]; format: functional
# Complement C1s subcomponent, sequence (P09871 16-437 limits assumed): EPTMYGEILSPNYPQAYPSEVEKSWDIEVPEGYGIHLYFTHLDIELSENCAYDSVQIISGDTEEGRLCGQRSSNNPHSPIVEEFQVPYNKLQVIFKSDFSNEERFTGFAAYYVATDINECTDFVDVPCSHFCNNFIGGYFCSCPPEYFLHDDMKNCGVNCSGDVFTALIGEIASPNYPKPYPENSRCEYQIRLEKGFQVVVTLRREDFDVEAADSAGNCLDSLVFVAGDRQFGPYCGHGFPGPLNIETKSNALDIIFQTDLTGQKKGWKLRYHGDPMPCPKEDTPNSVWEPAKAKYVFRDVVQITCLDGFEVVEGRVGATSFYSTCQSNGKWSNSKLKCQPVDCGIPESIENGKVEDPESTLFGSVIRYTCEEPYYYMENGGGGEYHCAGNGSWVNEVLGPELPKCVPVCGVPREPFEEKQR
# Complement C1s subcomponent, sequence (P09871 438-688 limits assumed): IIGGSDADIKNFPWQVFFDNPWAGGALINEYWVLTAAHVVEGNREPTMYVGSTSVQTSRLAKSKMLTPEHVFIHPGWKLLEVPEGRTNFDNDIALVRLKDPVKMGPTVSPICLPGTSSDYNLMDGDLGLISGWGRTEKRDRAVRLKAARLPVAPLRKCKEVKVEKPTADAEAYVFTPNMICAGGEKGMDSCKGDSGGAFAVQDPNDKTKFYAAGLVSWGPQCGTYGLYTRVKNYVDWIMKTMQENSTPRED
# [11] = molecular target: T7, Zinc finger protein mex-5 (Caenorhabditis elegans, UniProt Q9XUB2); test: potency of MEX-5 RNA-binding blockers – biochemical, C. elegans, fluorescence polarization, dose response (AID 1960)
# T7 sequence (Q9XUB2 whole entry): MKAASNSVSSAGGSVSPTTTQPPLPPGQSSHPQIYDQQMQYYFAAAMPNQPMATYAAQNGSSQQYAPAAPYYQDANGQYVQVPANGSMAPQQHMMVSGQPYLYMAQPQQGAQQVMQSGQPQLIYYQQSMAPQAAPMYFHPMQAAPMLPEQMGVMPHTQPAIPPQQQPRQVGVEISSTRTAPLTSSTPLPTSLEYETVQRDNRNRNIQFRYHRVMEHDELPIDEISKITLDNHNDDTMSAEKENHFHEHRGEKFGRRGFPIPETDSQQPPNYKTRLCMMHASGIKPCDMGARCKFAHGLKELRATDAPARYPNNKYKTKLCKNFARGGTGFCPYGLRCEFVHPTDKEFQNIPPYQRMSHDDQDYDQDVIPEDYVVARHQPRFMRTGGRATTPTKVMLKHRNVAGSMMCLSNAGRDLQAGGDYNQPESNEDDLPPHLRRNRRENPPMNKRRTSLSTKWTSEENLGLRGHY
# Streptococcus = test: GAS UMAA2166 growth inhibition – luminescence, BacTiterGlo, counter-screen for streptokinase expression inhibitor project, dose response (AID 1915); format: functional, organism-based;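 also: potency for reduction of bacterial viability or growth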
# 14-3-3 protein gamma = 14-3-3 protein gamma (Homo sapiens, UniProt P61981); test: modulators of 14-3-3 gamma client binding – dose response (AID 711); format: functional
# 14-3-3 protein gamma, sequence (P61981 whole entry): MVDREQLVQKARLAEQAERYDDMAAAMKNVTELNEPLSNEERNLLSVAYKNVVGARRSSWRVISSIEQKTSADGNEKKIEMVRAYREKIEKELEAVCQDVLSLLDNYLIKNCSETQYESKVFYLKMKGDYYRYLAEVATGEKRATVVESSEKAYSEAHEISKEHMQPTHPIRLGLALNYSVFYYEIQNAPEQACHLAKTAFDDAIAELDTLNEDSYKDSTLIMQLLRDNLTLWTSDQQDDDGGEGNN
# [12] = molecular target: Heat shock protein HSP 90-alpha (Homo sapiens, UniProt P07900); format: functional, organism-based
# Streptokinase A = molecular target: T8, Streptokinase A (Streptococcus pyogenes serotype M1, UniProt P10520); test: viability-normalized secreted streptokinase activity reduction – plasminogen activation absorbance, OD405, dose response (AID 1914); format: functional, Streptococcus pyogenes M1 GAS;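 also: secreted streptokinase activity via plasminogen activation per viability signal from cell pellet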
# T8 sequence (P10520 whole entry): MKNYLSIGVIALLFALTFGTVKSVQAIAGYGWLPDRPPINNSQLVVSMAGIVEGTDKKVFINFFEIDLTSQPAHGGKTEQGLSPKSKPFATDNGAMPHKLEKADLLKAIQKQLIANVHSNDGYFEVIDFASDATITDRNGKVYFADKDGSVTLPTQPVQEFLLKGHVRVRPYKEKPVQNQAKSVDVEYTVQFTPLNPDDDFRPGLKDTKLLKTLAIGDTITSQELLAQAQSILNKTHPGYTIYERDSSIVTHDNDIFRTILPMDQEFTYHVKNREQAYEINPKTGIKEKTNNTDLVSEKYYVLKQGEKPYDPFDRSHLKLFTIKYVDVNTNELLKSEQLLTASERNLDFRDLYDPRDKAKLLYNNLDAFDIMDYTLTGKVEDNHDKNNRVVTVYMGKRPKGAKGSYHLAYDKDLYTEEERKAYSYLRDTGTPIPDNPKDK
# [13] = test system: Streptococcus sp. 'group A'; test: Streptococcus pyogenes SK(-)GAS viability under kanamycin – luminescence, BacTiterGlo, confirmation, counter-screen for streptokinase expression inhibitor project, dose response (AID 1900); format: functional, organism-based
# [14] = molecular target: T9, RNA-binding protein pos-1 (Caenorhabditis elegans, UniProt G5EF15); test: disruptors of C. elegans POS-1 RNA interaction – biochemical, fluorescence polarization, dose response (AID 1964);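 also: purified POS-1 fused to maltose binding protein made in E. coli; potency of compounds blocking POS-1 binding to fluorescent RNA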
# T9 sequence (G5EF15 whole entry): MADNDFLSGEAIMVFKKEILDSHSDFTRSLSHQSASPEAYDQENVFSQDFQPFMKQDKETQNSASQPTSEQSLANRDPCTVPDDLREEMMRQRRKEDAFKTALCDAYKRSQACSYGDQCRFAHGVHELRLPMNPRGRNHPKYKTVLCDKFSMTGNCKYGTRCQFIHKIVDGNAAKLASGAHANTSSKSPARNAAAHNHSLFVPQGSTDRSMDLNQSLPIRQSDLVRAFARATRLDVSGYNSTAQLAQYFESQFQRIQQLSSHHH
# Voltage-gated inwardly rectifying potassium channel KCNH2, sequence (Q12809 whole entry): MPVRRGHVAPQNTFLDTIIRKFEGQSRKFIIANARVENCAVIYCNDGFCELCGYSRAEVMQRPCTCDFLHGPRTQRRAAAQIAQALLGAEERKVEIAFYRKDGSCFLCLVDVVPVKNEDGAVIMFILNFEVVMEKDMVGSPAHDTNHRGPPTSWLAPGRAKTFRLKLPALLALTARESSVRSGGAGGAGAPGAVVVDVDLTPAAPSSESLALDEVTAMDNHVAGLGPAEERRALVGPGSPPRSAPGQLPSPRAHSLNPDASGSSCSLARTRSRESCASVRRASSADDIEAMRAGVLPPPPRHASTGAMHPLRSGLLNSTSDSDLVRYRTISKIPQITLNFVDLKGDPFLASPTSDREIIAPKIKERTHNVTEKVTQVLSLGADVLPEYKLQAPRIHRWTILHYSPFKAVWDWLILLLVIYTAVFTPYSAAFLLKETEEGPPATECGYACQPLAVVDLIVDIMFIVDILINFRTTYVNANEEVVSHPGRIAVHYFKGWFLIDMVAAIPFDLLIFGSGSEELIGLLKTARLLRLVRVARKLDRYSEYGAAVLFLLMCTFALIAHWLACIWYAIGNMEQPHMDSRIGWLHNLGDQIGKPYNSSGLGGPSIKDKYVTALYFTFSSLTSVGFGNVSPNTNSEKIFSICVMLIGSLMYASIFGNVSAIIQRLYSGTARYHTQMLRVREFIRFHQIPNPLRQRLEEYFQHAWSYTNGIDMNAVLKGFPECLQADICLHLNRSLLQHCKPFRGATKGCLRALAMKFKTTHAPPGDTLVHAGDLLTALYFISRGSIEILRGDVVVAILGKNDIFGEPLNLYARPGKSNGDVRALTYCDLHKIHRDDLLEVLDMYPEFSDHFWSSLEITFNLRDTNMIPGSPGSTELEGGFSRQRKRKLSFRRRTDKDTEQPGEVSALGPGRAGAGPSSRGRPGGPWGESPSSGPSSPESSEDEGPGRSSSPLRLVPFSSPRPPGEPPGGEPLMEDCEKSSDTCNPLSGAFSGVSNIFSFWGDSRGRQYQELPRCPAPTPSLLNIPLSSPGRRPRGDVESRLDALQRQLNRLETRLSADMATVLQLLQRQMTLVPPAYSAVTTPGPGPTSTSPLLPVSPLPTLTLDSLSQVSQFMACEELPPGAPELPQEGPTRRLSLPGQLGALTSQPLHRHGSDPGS
structure (smiles),measurement,setting,value
CCN=C(S)N=NC1=C(O)c2cccc3cccc1c23,EC50,[1],0.26 µM (active)
Cc1cc(C(=O)CN2C(=O)CCC2=O)c(C)n1Cc1ccccc1,EC50,[2],2.85 µM (active)
same,EC50,[3],1.2 µM (active)
Oc1nc(Nc2ccccc2)cc2cc(Br)ccc12,AC50,Caspase-6,6.04 µM (active)
same,IC50,[4],> 67 µM (not active)
same,EC50,Protein RecA,7 µM (active)
same,IC50,[5],46.9 µM (not active)
same,AC50,[6],> 120 µM (inactive)
same,IC50,[7],32.2 µM (inactive)
Cc1nnc(SCc2ccccc2Cl)n(N)c1=O,IC50,[8],> 100 µM (active)
Cc1nc2ccc(NC(=O)N(C(C)C)C(C)C)cc2s1,IC50,[9],> 100 µM (active)
Cc1ccc(SCC2=NNC(=O)C2)cc1,IC50,Aspartyl aminopeptidase,> 73.5 µM (not active)
same,IC50,Leucine aminopeptidase,1.77 µM (active)
same,EC50,Protein RecA,1.01 µM (active)
same,IC50,Procathepsin L,> 59.6 µM (not active)
same,AC50,[6],3.72 µM (active)
O=c1oc(-c2ccco2)nc2ccccc12,IC50,[10],> 50 µM (not active)
Nc1nonc1C(=O)NCC/N=C/c1cc(Cc2ccccc2)cc(Br)c1O,EC50,[11],> 300 µM (not active)
same,EC50,Streptococcus,9.66 µM (active)
same,IC50,14-3-3 protein gamma,> 50 µM (not active)
same,AC50,[12],1.24 µM (active)
same,EC50,Streptokinase A,> 150 µM (not active)
same,EC50,[13],5.35 µM (active)
same,EC50,[14],> 300 µM (not active)
